Reference: US20230234906A1, “Use of 2-pentanone and specific receptor thereof in manufacture of products regulating cell functions” (Taihe Hospital, Hubei University of Medicine, priority 2022, published 2023)

What was measured:
[1] = target: T1, specific receptor Or35a and the specific receptor Or83b (Drosophila melanogaster, UniProt Q9V3Q2+Q9VNB5); assay: Patch clamp experiment (whole-cell recordings) in neurons of mouse brain slices expressing the specific receptor of 2-pentanone; type: cell-based; settings: addition of 2-pentanone, 300 μm brain slices of C57 mice injected with Or35a/Or83b overexpression virus, FIG. 4B
T1 construct: P2A peptide (self-cleaving; remnant stays on the C-terminus of Or35a) (C); remnant stays on the C-terminus of Or83b) (C); expressed in transfected cells; acute brain slices
T1 sequence (Q9V3Q2 1-409): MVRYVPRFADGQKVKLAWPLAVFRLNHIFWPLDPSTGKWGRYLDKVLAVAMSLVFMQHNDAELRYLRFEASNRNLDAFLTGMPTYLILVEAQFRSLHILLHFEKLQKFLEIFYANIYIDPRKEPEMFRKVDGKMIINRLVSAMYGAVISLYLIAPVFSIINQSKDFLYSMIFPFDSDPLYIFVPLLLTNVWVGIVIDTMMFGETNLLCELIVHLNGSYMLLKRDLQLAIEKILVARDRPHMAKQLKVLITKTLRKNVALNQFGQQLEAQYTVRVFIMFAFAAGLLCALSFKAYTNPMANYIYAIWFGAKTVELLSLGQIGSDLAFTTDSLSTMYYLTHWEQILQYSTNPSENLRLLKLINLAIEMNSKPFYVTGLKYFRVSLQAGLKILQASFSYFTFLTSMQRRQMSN
T1 sequence (Q9VNB5 1-486): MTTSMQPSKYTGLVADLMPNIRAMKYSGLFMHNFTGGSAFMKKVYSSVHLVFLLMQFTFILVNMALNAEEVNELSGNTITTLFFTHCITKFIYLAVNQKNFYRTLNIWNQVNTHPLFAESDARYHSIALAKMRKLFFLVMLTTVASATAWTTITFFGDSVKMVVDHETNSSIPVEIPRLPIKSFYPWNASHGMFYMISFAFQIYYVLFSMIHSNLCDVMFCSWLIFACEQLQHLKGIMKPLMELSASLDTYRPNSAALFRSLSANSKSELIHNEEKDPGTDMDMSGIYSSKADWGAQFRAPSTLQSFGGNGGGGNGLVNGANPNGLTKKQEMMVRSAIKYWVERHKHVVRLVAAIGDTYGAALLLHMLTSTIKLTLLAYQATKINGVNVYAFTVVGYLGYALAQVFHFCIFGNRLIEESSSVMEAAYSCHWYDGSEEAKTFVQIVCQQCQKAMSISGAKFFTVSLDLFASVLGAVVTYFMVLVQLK
Experimental: 2. Patch clamp experiment: Adult C57 mice were anesthetized, fixed on a stereotaxic apparatus, and operated to expose the brain surface of the mice (1.5 mm behind the bregma, 1 mm aside, and injection depth of 2 mm). The overexpression virus (1 μl) constructed in Example 1 was injected into the mouse brain using a microinjector. After 2 weeks of feeding, the brains of mice were removed. The brain tissues at and near the injection site were cut into 300 μm tissue slices using a vibrating microtome and placed in artificial cerebrospinal fluid with a mixture of 5% CO2 and 95% 02, and after 1 h of incubation, the patch clamp experiment was performed. Using an Axon 700B amplifier, under infrared visualization, neurons with smooth surfaces and clear contours were selected for sealing, and whole-cell recordings were performed.

[2] = Verification of the arrival of 2-pentanone in cerebrospinal fluid (HPLC-MS of blood and cerebrospinal fluid after inhalation); type: in vivo, rats
Experimental: The specific method for detecting the arrival of 2-pentanone in cerebrospinal fluid in this test example included the following: rats were given 2-pentanone for 3 min, then blood and cerebrospinal fluid were drawn, immediately sealed and centrifuged at high speed to pellet red blood cells. The obtained cerebrospinal fluid and blood samples were subjected to HPLC-MS detection. Prior to detection, 100 μL of samples was taken and added with 400 μL of acetonitrile. The protein was separated by vortex and centrifuged at 14000 rpm for 10 min, and 100 μL of supernatant was used for HPLC-MS detection. […] It was confirmed by high performance liquid chromatography-mass spectrometry (HPLC-MS) that 2-pentanone could reach cerebrospinal fluid through blood rapidly (3 min) after inhaled by animals, and the concentration in cerebrospinal fluid decreased rapidly within 3-5 min after the inhalation was stopped.

[3] = target: T1, specific receptor Or35a and the specific receptor Or83b; assay: Calcium imaging experiment in mouse brain slices expressing the specific receptor of 2-pentanone; type: cell-based; settings: addition of 2-pentanone; 150 μm brain slices of C57 mice injected with Or35a/Or83b overexpression virus and calcium imaging virus; confocal microscope; FIG. 4A
Experimental: 1. Calcium imaging experiment: Adult C57 mice were anesthetized, fixed on a stereotaxic apparatus, and operated to expose the brain surface of the mice (1.5 mm behind the bregma, 1 mm aside, and injection depth of 2 mm). The overexpression virus (1 μl) constructed in Example 1 and the calcium imaging virus (0.5 μl) were simultaneously injected into the mouse brain using a microinjector. After 2 weeks of feeding, the brains of mice were removed. The brain tissues near the injection site were cut into 150 μm tissue slices using a vibrating microtome and placed in artificial cerebrospinal fluid with a mixture of 5% CO2 and 95% O2, and calcium imaging experiment was performed using a confocal microscope.

CCCC(C)=O [2-pentanone]
neuronal firing rate [1]: significantly increased
time to reach cerebrospinal fluid through blood after inhalation ([2]; rats given 2-pentanone for 3 min by inhalation, HPLC-MS of cerebrospinal fluid): 3 min
time within which the concentration in cerebrospinal fluid decreased rapidly after the inhalation was stopped ([2]; rats, after inhalation was stopped, HPLC-MS): 3 to 5 min
intracellular calcium ion concentration [3]: significantly increased
